The values below come from patent USRE42013E1, “Macrocyclic modulators of the ghrelin receptor” (Tranzyme Pharma Inc., priority 2003, dated 2010).

T1 sequence (Q92847 whole entry): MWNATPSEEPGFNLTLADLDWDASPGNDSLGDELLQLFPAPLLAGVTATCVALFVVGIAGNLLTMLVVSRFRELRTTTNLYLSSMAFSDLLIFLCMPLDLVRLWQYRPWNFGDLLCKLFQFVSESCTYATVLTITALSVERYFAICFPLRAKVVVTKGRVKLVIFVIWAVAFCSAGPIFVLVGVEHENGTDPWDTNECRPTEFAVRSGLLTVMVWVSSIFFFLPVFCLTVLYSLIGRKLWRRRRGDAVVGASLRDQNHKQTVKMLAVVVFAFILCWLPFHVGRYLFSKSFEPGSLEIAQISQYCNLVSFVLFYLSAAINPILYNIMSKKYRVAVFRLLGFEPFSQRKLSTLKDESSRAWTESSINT

For one test, the target named is human ghrelin receptor (hGHS-R1a) (Homo sapiens, UniProt Q92847). Kind of test: cell-based.
Sequence of human ghrelin receptor (hGHS-R1a) (Q92847 whole entry): as above
Conditions: not given
The EC50 is the concentration that produces a half-maximal response. Compound `CCCCC1NCCOc2ccccc2CCCNC(=O)C(Cc2ccccc2)NC(=O)CN(C)C1=O` (stereo not shown) [Compound 1] gave an EC50 of 100 to 1000 nM.

A further test has as its target T1, human growth hormone secretagogue receptor (hGHS-R1a) (Homo sapiens, UniProt Q92847).
T1 construct: purchased PerkinElmer BioSignal #RBHGHSM, lot#1887; host or cells: HEK-293, stably transfected
Kind of test: Competitive radioligand binding assay (ghrelin receptor), [125I]-ghrelin displacement. As to conditions: Table 3B; binding at human ghrelin receptor, [125I]-ghrelin displacement; read-out: Ki. Here is the method: The competitive binding assay at the human growth hormone secretagogue receptor (hGHS-R1a) was carried out analogously to assays described in the literature.
Multiscreen Harvest plates-GF/C (Millipore, #MAHFC1H60) • 4. […] Bottom seal (Millipore, #MATAH0P00) • 7. […] Binding Buffer: 25 mM Hepes (pH 7.4), 1 mM CaCl2, 5 mM MgCl2, 2.5 mM EDTA, 0.4% BSA Assay Volumes
Competition experiments were performed in a 300 μl filtration assay format. • 1. 220 μL of membranes diluted in binding buffer • 2. 40 μL of compound diluted in binding buffer • 3. […] Compound Handling
Compounds were provided frozen on dry ice at a stock concentration of 10 mM diluted in 100% DMSO and stored at −80° C. until the day of testing. On the test day, compounds were allowed to thaw at rt O/N and then diluted in assay buffer according to the desired test concentrations.
Plates were sealed with TopSeal-A, vortexed gently and incubated at rt for 30 min. The reaction was arrested by filtering samples through Multiscreen Harvest plates (pre-soaked in 0.5% polyethyleneimine) using a Tomtec Harvester, washed 9 times with 500 μL of cold 50 mM Tris-HCl (pH 7.4, 4° C.), and then plates were air-dried in a fumehood for 30 min. A bottom seal was applied to the plates prior to the addition of 25 μL of MicroScint-0 to each well. […] Results were expressed as counts per minute (cpm).
Data were analyzed by GraphPad Prism (GraphPad Software, San Diego, Calif.) using a variable slope non-linear regression analysis.
Compound structures for Tables 3A, 3B and 3D are presented with the various groups as defined for the general structure of formula I. For Tables 3B and 3D, in all entries, m, n and p are 0; X, Z1 and Z2 are each NH. For Table 3B, R1 is H for all entries. The tethers (T) are illustrated with the bonding to X and Z2 as indicated. The compounds themselves are shown for Table 3C.
• 1. […] Key Aspects of Method • 1. […] Results
A word on the Ki: it is a dissociation constant, usually derived from enzyme kinetics or from competition with a known ligand. With `O=C1NC2(CCCC2)C(=O)NC(Cc2cccc(Cl)c2)C(=O)NCC=Cc2ccccc2OCCNC1Cc1ccc(O)cc1` (stereo not shown) [compound 301], the Ki is less than 100 nM.

For the compound `CC1C(=O)NC(Cc2ccc(F)cc2)C(=O)NCCC=CCOCCNC(C2CC2)C(=O)N1C` (stereo not shown) [compound 307], the Ki fell in the range of 100 to 10000 nM.

Turning to `CC1C(=O)NC(Cc2ccsc2)C(=O)NCCCc2ccccc2OCCNC(C2CC2)C(=O)N1C` (stereo not shown) [compound 310], the Ki was less than 100 nM.

As for `C[C@@H]1C(=O)N[C@H](Cc2ccc(O)c(C(C)(C)C)c2)C(=O)NCCCc2ccccc2OCCN[C@@H](C2CC2)C(=O)N1C` [compound 311], the Ki is less than 100 nM.

In the case of `COc1ccc(CC2NC(=O)C(C)N(C)C(=O)C(C3CC3)NCCOc3ccccc3CCCNC2=O)cc1OC` (stereo not shown) [compound 323], the Ki lay within 100 to 10000 nM.

As to `CC1C(=O)NC(Cc2c[nH]c3ccccc23)C(=O)NCCCc2ccccc2OCCNC(C2CC2)C(=O)N1C` (stereo not shown) [compound 324], the Ki is less than 100 nM.

`CCC(C)C1NCCOc2ccccc2C=CCNC(=O)C(Cc2cccc(Br)c2)NC(=O)C2(CCCC2)NC1=O` (stereo not shown) [compound 326]: the Ki is less than 100 nM.

`CCC(C)C1NCCOc2ccccc2C=CCNC(=O)C(Cc2cccc(C#N)c2)NC(=O)C2(CCCC2)NC1=O` (stereo not shown) [compound 329]: the Ki was less than 100 nM.

`CCC(C)C1NCCOc2ccccc2C=CCNC(=O)C(Cc2ccsc2)NC(=O)C2(CCCC2)NC1=O` (stereo not shown) [compound 333]: the Ki lay within 100 to 10000 nM.

For `COC(C)C1NCCOc2ccccc2CCCNC(=O)C(Cc2ccc(F)cc2)NC(=O)C(C)N(C)C1=O` (stereo not shown) [compound 335], the Ki is less than 100 nM.

With `O=C1NC2(CCCC2)C(=O)NC(Cc2cccc(Cl)c2)C(=O)NCC=Cc2ccccc2OCCNC1Cc1ccsc1` (stereo not shown) [compound 341], the Ki is less than 100 nM.

With `N#Cc1ccccc1CC1NCCOc2ccccc2C=CCNC(=O)C(Cc2cccc(Cl)c2)NC(=O)C2(CCCC2)NC1=O` (stereo not shown) [compound 342], the Ki was 100 to 10000 nM.

As to `COCC1NCCOc2ccccc2C=CCNC(=O)C(Cc2cccc(Cl)c2)NC(=O)C2(CCCC2)NC1=O` (stereo not shown) [compound 344], the Ki lay within 100 to 10000 nM.

`CC1C(=O)NC(Cc2ccc(F)cc2)C(=O)NCCCc2cc(F)ccc2OCCNC(C2CC2)C(=O)N1C` (stereo not shown) [compound 355]: the Ki is less than 100 nM.

Turning to `CC1C(=O)NC(Cc2ccc(F)cc2)C(=O)NCCCc2cc(C(F)(F)F)ccc2OCCNC(C2CC2)C(=O)N1C` (stereo not shown) [compound 356], the Ki is 100 to 10000 nM.

As to `CC1C(=O)NC(Cc2ccc(F)cc2)C(=O)NCCCc2ccc(NS(C)(=O)=O)cc2OCCNC(C2CC2)C(=O)N1C` (stereo not shown) [compound 357], the Ki was in the range of 100 to 10000 nM.

As for `CCC(C)C1NCCOc2ccccc2C(C)(C)CCNC(=O)C(Cc2cccc(Cl)c2)NC(=O)C2(CCCC2)NC1=O` (stereo not shown) [compound 359], the Ki lay within 100 to 10000 nM.

Turning to `CCC(C)C1NCCOCC=CCCNC(=O)C(Cc2cccc(Cl)c2)NC(=O)C2(CCCC2)NC1=O` (stereo not shown) [compound 360], the Ki lay in the range of 100 to 10000 nM.

Turning to `CCC(C)C1NCCCc2ccccc2C=CCCNC(=O)C(Cc2cccc(Cl)c2)NC(=O)C2(CCCC2)NC1=O` (stereo not shown) [compound 361], the Ki lay within 100 to 10000 nM.

As for `CCC(C)C1NCc2ccccc2CCCCCNC(=O)C(Cc2cccc(Cl)c2)NC(=O)C2(CCCC2)NC1=O` (stereo not shown) [compound 362], the Ki is 100 to 10000 nM.

`CCC(C)C1NCCCCCCCCNC(=O)C(Cc2cccc(Cl)c2)NC(=O)C2(CCCC2)NC1=O` (stereo not shown) [compound 363]: the Ki was in the range of 100 to 10000 nM.

On to `CCC(C)C1NCCCCCCNC(=O)C(Cc2cccc(Cl)c2)NC(=O)C2(CCCC2)NC1=O` (stereo not shown) [compound 365], for which the Ki lay within 100 to 10000 nM.

In the case of `CCC(C)C1NCCCCCCCNC(=O)C(Cc2cccc(Cl)c2)NC(=O)C2(CCCC2)NC1=O` (stereo not shown) [compound 366], the Ki is 100 to 10000 nM.

`CCC(C)C1NCCOCCCCCNC(=O)C(Cc2cccc(Cl)c2)NC(=O)C2(CCCC2)NC1=O` (stereo not shown) [compound 370]: the Ki lay in the range of 100 to 10000 nM.

Turning to `CCC(C)C1NCCCc2ccccc2CCCCNC(=O)C(Cc2cccc(Cl)c2)NC(=O)C2(CCCC2)NC1=O` (stereo not shown) [compound 371], the Ki was less than 100 nM.

As to `CC1C(=O)NC(Cc2ccc(F)cc2)C(=O)NCCCc2cc(Cl)ccc2OCCNC(C2CC2)C(=O)N1C` (stereo not shown) [compound 373], the Ki was less than 100 nM.

In the case of `CC1CCNC(=O)C(Cc2ccc(F)cc2)NC(=O)C(C)N(C)C(=O)C(C2CC2)NCCOc2ccccc21` (stereo not shown) [compound 375], the inhibition constant Ki was in the range of 100 to 10000 nM.

Regarding `CC1CNC(=O)C(Cc2ccc(F)cc2)NC(=O)C(C)N(C)C(=O)C(C2CC2)NCCOc2ccccc2C1` (stereo not shown) [compound 376], the Ki was 100 to 10000 nM.

`CC1C(=O)NC(Cc2ccc(F)cc2)C(=O)NCCOc2cccc(c2)OCCNC(C2CC2)C(=O)N1C` (stereo not shown) [compound 377]: the Ki lay in the range of 100 to 10000 nM.

As for `CC1C(=O)NC(Cc2ccc(F)cc2)C(=O)NCCC(C)(C)c2ccccc2OCCNC(C2CC2)C(=O)N1C` (stereo not shown) [compound 378], the Ki fell in the range of 100 to 10000 nM.

In the case of `CC1C(=O)NC(Cc2ccc(F)cc2)C(=O)NCC2CC2c2ccccc2OCCNC(C2CC2)C(=O)N1C` (stereo not shown) [compound 379], the Ki was less than 100 nM.

In the case of `CCC(C)C1NCCOc2ccccc2C=CCNC(=O)C(Cc2cccc(Cl)c2)NC(=O)C2(CCCC2)NC1=O` (stereo not shown) [compound 380], the Ki lay in the range of 100 to 10000 nM.

As for `CCC(C)C1NCCOc2ccccc2C#CCNC(=O)C(Cc2cccc(Cl)c2)NC(=O)C2(CCCC2)NC1=O` (stereo not shown) [compound 381], the Ki is less than 100 nM.

As for `CCC(C)C1NCCOc2cc(F)ccc2CCCNC(=O)C(Cc2cccc(Cl)c2)NC(=O)C2(CCCC2)NC1=O` (stereo not shown) [compound 383], the Ki lay within 100 to 10000 nM.

As for `CCC(C)C1NCCOc2ccc(Cl)cc2CCCNC(=O)C(Cc2cccc(Cl)c2)NC(=O)C2(CCCC2)NC1=O` (stereo not shown) [compound 384], the Ki lay within 100 to 10000 nM.

`CCC(C)C1NCCOc2cccnc2CCCNC(=O)C(Cc2cccc(Cl)c2)NC(=O)C2(CCCC2)NC1=O` (stereo not shown) [compound 385]: the Ki is 100 to 10000 nM.

`CCC(C)C1NCCOc2ccccc2C(C)CCNC(=O)C(Cc2cccc(Cl)c2)NC(=O)C2(CCCC2)NC1=O` (stereo not shown) [compound 386]: the Ki lay within 100 to 10000 nM.

As to `CCC(C)C1NCCOc2ccccc2C2CC2CNC(=O)C(Cc2cccc(Cl)c2)NC(=O)C2(CCCC2)NC1=O` (stereo not shown) [compound 387], the Ki was 100 to 10000 nM.

With `CCC(C)C1NCCCNCCNC(=O)C(Cc2cccc(Cl)c2)NC(=O)C2(CCCC2)NC1=O` (stereo not shown) [compound 390], the Ki was 100 to 10000 nM.

On to `CCC(C)C1NCCOc2ccccc2CC(C)CNC(=O)C(Cc2cccc(Cl)c2)NC(=O)C2(CCCC2)NC1=O` (stereo not shown) [compound 392], for which the Ki is less than 100 nM.

For `CCC(C)C1NCCOCCOCCNC(=O)C(Cc2cccc(Cl)c2)NC(=O)C2(CCCC2)NC1=O` (stereo not shown) [compound 393], the Ki is 100 to 10000 nM.

Turning to `CC1C(=O)NC(Cc2ccc(F)cc2)C(=O)NCCCCCOCCNC(C2CC2)C(=O)N1C` (stereo not shown) [compound 398], the Ki was 100 to 10000 nM.

As for `CC1C(=O)NC(Cc2ccc(F)cc2)C(=O)NCC=Cc2ccccc2OCCNC(C2CC2)C(=O)N1C` (stereo not shown) [compound 400], the Ki is less than 100 nM.

Still in this test, the particulars now being: Table 3D; binding at human ghrelin receptor, [125I]-ghrelin displacement; read-out: Ki.
Consider `CC1CNC(C2CC2)C(=O)N(C)C(C)C(=O)NC(Cc2ccccc2)C(=O)NCCCc2ccc(F)cc2O1` (stereo not shown) [compound 435], for which the Ki fell in the range of 10 to 100 nM.

Take `CC(C)CC1NCC(C)Oc2ccccc2CCCNC(=O)C(Cc2cccc(Cl)c2)NC(=O)C2(CCCC2)NC1=O` (stereo not shown) [compound 438]: the Ki fell in the range of 1000 to 10000 nM.

Consider `CCC(C)C1NCCOc2ccccc2CCCNC(=O)C(Cc2ccc(F)cc2)NC(=O)C(COCc2ccccc2)N(C)C1=O` (stereo not shown) [compound 440], for which the Ki fell in the range of 100 to 10000 nM.

Turning to `CCC(C)C1NCCCCCNC(=O)C(Cc2cccc(Cl)c2)NC(=O)C2(CCCC2)NC1=O` (stereo not shown) [compound 447], the Ki fell in the range of 1000 to 10000 nM.

The test is the same for the next values; noted with them: Table 3E; binding activity at the human ghrelin receptor, class symbols; read-out: Ki.
Consider `CC(C)C[C@@H]1NCCOc2ccccc2CCCNC(=O)[C@H](Cc2ccccc2)NC(=O)[C@@H]2CCCN2C1=O` [compound 222], for which the Ki lay in the range of 1000 to 10000 nM.

For `CC(C)C[C@@H]1NCCOc2ccccc2CCCNC(=O)[C@H](Cc2ccccc2)NC(=O)[C@H]2CCCN2C1=O` [compound 223], the Ki lay within 1000 to 10000 nM.

Staying with this test, now noted: Table 4; binding at human ghrelin receptor; TFA salts unless otherwise noted; read-out: Ki.
`CCCCC1NCCOc2ccccc2CCCNC(=O)C(Cc2ccccc2)NC(=O)CN(C)C1=O` (stereo not shown) [Compound 1]: the Ki lay in the range of 10 to 100 nM.

For `CCC(C)C1NCCCCCCCCNC(=O)C(Cc2cccc(Cl)c2)NC(=O)C2(CCCC2)NC1=O` (stereo not shown) [compound 363], the Ki lay within 100 to 1000 nM.

Still in this test, the particulars now being: [125I]-ghrelin displacement, hGHS-R1a HEK-293 membranes; read-out: Binding Activity at the Human Ghrelin Receptor (Ki).
Turning to `O=C1NC2(CCCC2)C(=O)NC(Cc2ccccc2)C(=O)NCC=Cc2ccccc2OCCNC1Cc1ccccn1` (stereo not shown) [compound 210], the Ki is greater than 1000 nM.

Consider `O=C1NC2(CCCC2)C(=O)NC(Cc2ccccc2)C(=O)NCC=Cc2ccccc2OCCNC1Cc1c[nH]cn1` (stereo not shown) [compound 219], for which the Ki was in the range of 100 to 10000 nM.

The test is the same for the next values; noted with them: binding activity at the human ghrelin receptor; [125I]-ghrelin displacement, hGHS-R1a/HEK-293 membranes; read-out: Ki.
For `CCCCC1NCCOc2ccccc2CCCNC(=O)C(Cc2ccccc2)NC(=O)CN(C)C1=O` (stereo not shown) [Compound 1], the Ki was 10 to 100 nM.
